Data: patent US4758574A, “2-phenylimidazio (4,5-c) pyridines” (Eli Lilly and Company, priority 1986, dated 1988)
Counter-ions that a name gives are not always drawn. Like-named read-outs stand apart in the source and are kept apart here.

Columns and labels:
Cat Papillary Muscles = assay: Positive Inotropic Activity in Isolated Cat Papillary Muscles; assay type: cell-based; conditions: Felis catus, control = 100 percent, read-out: Contractility of Papillary Muscle (peak response); for activity at 100 µM: Drug Concentration 10^-4 M; for activity at 10 µM: Drug Concentration 10^-5 M
Method: Positive Inotropic Activity in Isolated Cat Papillary Muscles […] A platinum hook secured one end of the muscle to an electrode mounted in the bottom of the bath, and a silk thread attached the tendon to a Statham isometric transducer. The baths contained Krebs-Henseleit solution (36° C., bubbled with 95 percent oxygen--5 percent carbon dioxide) of the following millimolar composition: NaCl, 118; KCl, 4.5; CaCl2, 2.5; KH2 PO4, 1.1; MgSO4, 1.2; NaHCO3, 25; and glucose, 11. A base-line tension of 1.5 g. was applied to each muscle. Square-wave pulses (5.0 msec. in duration, three times threshold voltage) delivered through the hook electrode and a second electrode positioned near the top of the muscle evoked 12 contractions/minute, which were recorded on a Grass polygraph. After the muscles had equilibrated for 60 minutes, the recorder gain was adjusted so that the pen deflected 10 mm. The drug was introduced in a solution of normal saline in an amount to bring the final concentration of the drug to 10^-5 or 10^-4 molar. Increases in contractility were tabulated as millimeters of pen deflection in excess of the baseline value. In each experiment the maximum contractility was measured. Test results are summarized in Table I and are expressed as percent of control (control=100 percent). Values are the average of results from 2 to 8 muscles.

[1] = test system: Ventricular Contractility in the Anesthetized Dog; assay: Ventricular Contractility in the Anesthetized Dog; assay type: in vivo, Mongrel dogs; conditions: Canis lupus familiaris, iv, i.v. bolus, read-out: ED50 (dose required to produce a peak increase in contractility of 50%)
Method: Experiments in Anesthetized Dogs Mongrel dogs of either sex ranging in weight from 7 to 14 kg. wer used. Anesthesia was induced with sodium pentobarbital (30 mg./kg., i.v.) and maintained with supplemental doses as required. A positive-pressure pump was used to ventilate the dogs through an endotracheal tube (18 strokes/minute, 20 ml./kg. stroke^-1), and a heating pad kept the body temperature at 37°-38° C. Femoral arterial blood pressure was measured through a polyethylene catheter filled with heparin solution (16 units/ml.) and connected to a Statham pressure transducer. A strain-gauge arch sutured to the right ventricle of the heart measured cardiac contractility. Tension on the gauge was adjusted to 50 g. and the gain of the recorder (Beckman dynograph) was set so that 50 g. caused a 10-mm. pen deflection; cardiac contractile tension was measured as millimeters of pen deflection or grams of tension. The drug was administered following a 30-45 minute equilibrium period as an i.v. bolus (2-5 ml.) in a normal saline vehicle. […] The maximum effects on contractility at various dose levels were determined and plotted and the dose required to produce a 50% increase in contractility (ED50) was determined by interpolation.

[2] = test system: SRS-A release, guinea pig lung; assay: Inhibition of SRS-A (Slow-Reacting Substance of Anaphylaxis) From Guinea Pig Lung; assay type: cell-based; conditions: Cavia porcellus, sensitized guinea pig lung, ovalbumin antigen, read-out: percent inhibition of SRS-A release
Method: Inhibition of SRS-A (Slow-Reacting Substance of Anaphylaxis) From Guinea Pig Lung
Male, Hartley guinea pigs, usually 1-2 weeks old, were sensitized with respect to ovalbumin by intraperitoneal administration of 0.15 ml. hyperimmune serum obtained from guinea pigs actively sensitized against ovalbumin. After 2 days or more, the animals were decapitated, lungs were excised and perfused through the pulmonary artery with Krebs' bicarbonate solution of the following composition in mmoles/liter: KCl, 4.6; CaCl2.2 H2 O, 1.8; KH2 PO4, 1.2; MgSO4.7H2 O, 1.2; NaCl, 118.2; NaHCO3, 24.8; and dextrose, 10.0. Poorly perfused and bloody areas were discarded. Normal lung was cut into 1 mm. cubes with a McIlwain tissue chopper, washed with Krebs' solution and divided into 400 mg. aliquots. The fragmented tissue was then incubated at 37° C. for 15 minutes in Krebs' solution containing indomethacin to optimize SRS-A release and an appropriate concentration of experimental drug. Antigen (ovalbumin) was then added to make a final concentration of 1×10^-5 g./ml. Fifteen minutes later, the incubation medium was decanted and centrifuged at 3,000×g at 4° C. for 5 minutes. […] Release of SRS-A in the presence of the experimental drug was compared to a control sample and the results expressed as percent inhibition of SRS-A release.

COc1ccc(-c2nc3cnccc3[nH]2)c(OC)c1 [Example 8, 2-(2,4-Dimethoxyphenyl)imidazo[4,5-c]pyridine hydrochloride]
activity at 100 µM (Cat Papillary Muscles): 172% | activity at 10 µM (Cat Papillary Muscles): 158% | ED50 [1]: 0.27 mg/kg | inhibition at 100 µM ([2]; 1×10^-4 M): 45.1% | inhibition at 10 µM ([2]; 1×10^-5 M): 19.4%

c1ccc(-c2nc3cnccc3[nH]2)cc1 [Example 7, 2-Phenylimidazo[4,5-c]pyridine]
activity at 100 µM (Cat Papillary Muscles): 192% | activity at 10 µM (Cat Papillary Muscles): 107% | ED50 ([1]; tested as the hydrochloride salt): 2.5 mg/kg

Cc1ccc(-c2nc3cnccc3[nH]2)c(C)c1 [Example 24, 2-(2,4-dimethylphenyl)imidazo[4,5-c]pyridine hydrochloride]
activity at 100 µM (Cat Papillary Muscles): 94% | activity at 10 µM (Cat Papillary Muscles): 87% | ED50 [1]: 1.4 mg/kg

CSc1ccc(-c2nc3cnccc3[nH]2)cc1.Cl [Example 9, 2-(4-methylmercaptophenyl)imidazo[4,5-c]pyridine hydrochloride]
activity at 100 µM (Cat Papillary Muscles): 205% | activity at 10 µM (Cat Papillary Muscles): 113% | ED50 [1]: 4 mg/kg

COc1ccc(-c2nc3cnccc3[nH]2)cc1OC.Cl [Example 56, 2-(3,4-dimethoxyphenyl)imidazo[4,5-c]pyridine hydrochloride]
activity at 100 µM (Cat Papillary Muscles): 252% | activity at 10 µM (Cat Papillary Muscles): 163% | ED50 [1]: 0.38 mg/kg

Clc1ccc(-c2nc3cnccc3[nH]2)c(Cl)c1 [Example 47, 2-(2,4-dichlorophenyl)imidazo[4,5-c]pyridine]
activity at 100 µM (Cat Papillary Muscles): 157% | activity at 10 µM (Cat Papillary Muscles): 105% | ED50 [1]: 0.67 mg/kg

CCCOc1cc([S+](C)[O-])ccc1-c1nc2cnccc2[nH]1 (centres unmarked) [Example 54, 2-(2-n-propoxy-4-methylsulfinylphenyl)imidazo[4,5-c]pyridine]
activity at 100 µM (Cat Papillary Muscles): 159% | activity at 10 µM (Cat Papillary Muscles): 122% | ED50 [1]: 1 mg/kg

Cc1ccccc1-c1nc2cnccc2[nH]1 [Example 26, 2-(2-methylphenyl)imidazo[4,5-c]pyridine hydrochloride]
activity at 100 µM (Cat Papillary Muscles): 188% | activity at 10 µM (Cat Papillary Muscles): 106% | ED50 [1]: 2.2 mg/kg

COc1cc(SC)ccc1-c1nc2cnccc2[nH]1.Cl [Example 23, 2-(2-methoxy-4-methylmercaptophenyl)imidazo[4,5-c]pyridine hydrochloride]
activity at 100 µM (Cat Papillary Muscles): 142% | activity at 10 µM (Cat Papillary Muscles): 141% | ED50 [1]: 0.21 mg/kg

CS(=O)(=O)c1ccc(-c2nc3cnccc3[nH]2)cc1 [Example 4, 2-(4-Methylsulfonylphenyl)imidazo[4,5-c]pyridine hydrochloride]
activity at 100 µM (Cat Papillary Muscles): 139% | activity at 10 µM (Cat Papillary Muscles): 117% | ED50 [1]: 7.5 mg/kg

COc1cc(C(F)(F)F)ccc1-c1nc2cnccc2[nH]1.Cl [Example 59, 2-(2-Methoxy-4-trifluoromethylphenyl)imidazo[4,5-c]pyridine hydrochloride]
activity at 100 µM (Cat Papillary Muscles): 134% | activity at 10 µM (Cat Papillary Muscles): 139% | ED50 [1]: 0.005 mg/kg

COc1ccc(-c2nc3cnccc3[nH]2)cc1.Cl [Example 15, 2-(4-methoxyphenyl)imidazo[4,5-c]pyridine hydrochloride]
activity at 100 µM (Cat Papillary Muscles): 204% | activity at 10 µM (Cat Papillary Muscles): 104% | ED50 [1]: 1.7 mg/kg

COc1ccc(-c2nc3cnccc3[nH]2)c(OCCSC)c1 [Example 39, 2-[2-(β-methylmercaptoethoxy)-4-methoxyphenyl]imidazo[4,5-c]pyridine]
activity at 100 µM (Cat Papillary Muscles): 140% | activity at 10 µM (Cat Papillary Muscles): 118% | ED50 [1]: 1.1 mg/kg

COc1ccc(-c2nc3cnccc3[nH]2)c(OCC[S+](C)[O-])c1 (stereo not drawn) [Example 52, 2-[2-(β-methylsulfinylethoxy)-4-methoxyphenyl]imidazo[4,5-c]pyridine]
activity at 100 µM (Cat Papillary Muscles): 185% | activity at 10 µM (Cat Papillary Muscles): 122% | ED50 [1]: 5.2 mg/kg

COc1cc([N+](=O)[O-])ccc1-c1nc2cnccc2[nH]1 [Example 60, 2-(2-Methoxy-4-nitrophenyl)imidazo[4,5-c]pyridine]
activity at 100 µM (Cat Papillary Muscles): 145% | activity at 10 µM (Cat Papillary Muscles): 142% | ED50 [1]: 0.015 mg/kg

CCOc1ccc(-c2nc3cnccc3[nH]2)cc1.Cl [Example 13, 2-(4-ethoxyphenyl)imidazo[4,5-c]pyridine hydrochloride]
activity at 100 µM (Cat Papillary Muscles): 157% | activity at 10 µM (Cat Papillary Muscles): 104% | ED50 [1]: 2.5 mg/kg

CCSCCOc1cc(OC)ccc1-c1nc2cnccc2[nH]1.Cl [Example 45, 2-[2-(β-ethylmercaptoethoxy)-4-methoxyphenyl]imidazo[4,5-c]pyridine h ydrochloride]
activity at 100 µM (Cat Papillary Muscles): 125% | activity at 10 µM (Cat Papillary Muscles): 122% | ED50 [1]: 1 mg/kg

CCCOc1cc(OC)ccc1-c1nc2cnccc2[nH]1 [Example 29, 2-(2-n-propoxy-4-methoxyphenyl)imidazo[4,5-c]pyridine]
activity at 100 µM (Cat Papillary Muscles): 335% | activity at 10 µM (Cat Papillary Muscles): 134% | ED50 [1]: 1.3 mg/kg

Cc1cccc(-c2nc3cnccc3[nH]2)c1 [Example 2, 2-(3-Methylphenyl)imidazo[4,5-c]pyridine]
activity at 100 µM (Cat Papillary Muscles): 181% | activity at 10 µM (Cat Papillary Muscles): 116% | ED50 [1]: 1 mg/kg
